Measured values from US20250154156A1, “QUINAZOLINE DERIVATIVE AS KRAS G12C MUTATION INHIBITOR” (Shenzhen Forward Pharmaceuticals Co., Limited, priority 2022, published 2025).
pIC50: −log10 of the molar value.

Columns and labels:
[1] = system: NCI-H358 cells (KRAS G12C mutant cell line); assay: Proliferation experiment of NCI-H358 cells (Cell Titer-Glo); assay type: cell-based; settings: Homo sapiens, 72 hours, read-out: Test Example 1 IC50
Experimental: (§1) According to the solution described in Cell Titer-Glo Luminescent cell Viability Assay (Promega catalog number #G7570) of Promega Corporation, the number of living cells in the culture was detected. 90 μL of cells (8,000 cells/well) were cultured in a growth medium in a Corning black transparent bottom 96-well plate and were cultured overnight in a 5% CO2 humidified incubator at 37° C. The compound diluted serially in 100% DMSO was added to the cells by a pipette, and the cells were cultured for another 72 hours. 100 μL of the well-mixed Cell Titer-Glo reagent was added to the cells in the 96-well culture plate to lyse the cells and gently mixed. Subsequently, […] was detected on an Envision microplate detector, and the data of each compound was obtained. Finally, the data was input into a suitable software package (such as Prism) for curve fitting analysis.

[2] = system: NCI-H23 cells (KRAS G12C mutant cell line); assay: Proliferation experiment of NCI-H23 cells (Cell Titer-Glo); assay type: cell-based; settings: Homo sapiens, 72 hours, read-out: Test Example 2 IC50
Experimental: Human lung cancer cell line NCI-H23 (ATCC, CRL-5800) was a KRAS G12C mutant cell line.
as §1

[3] = target: Ba/F3 (KRAS-G12C-Y96C) cells (Homo sapiens, UniProt P01116, G12C/Y96C, cells depend on it); assay: Proliferation experiment of Ba/F3 (KRAS-G12C-Y96C) cells; assay type: cell-based; settings: 72 hours, Cell Titer-Glo, read-out: Test Example 3 IC50
Experimental: Engineered cell strain Ba/F3 (KRAS-G12C-Y96C) was a cell strain constructed by the inventors according to the methods described in Warmuth M. et al, Curr Opin Oncol. […] The cells were grown at 37° C. in a humidified incubator with […].
as §1, with “(3,000” for “(8,000”, “[…]” for “5%”

[4] = target: Ba/F3 (KRAS-G12C-H95Q) cells (Homo sapiens, UniProt P01116, G12C/H95Q, cells depend on it); assay: Proliferation experiment of Ba/F3 (KRAS-G12C-H95Q) cells; assay type: cell-based; settings: 72 hours, Cell Titer-Glo, read-out: Test Example 4 IC50
Experimental: Engineered cell strain Ba/F3 (KRAS-G12C-H95Q) was a cell strain constructed by the inventors according to the methods described in Warmuth M. et al, Curr Opin Oncol. […] The cells were grown at 37° C. in a humidified incubator with […].
as §1, with “(3,000” for “(8,000”

[5] = target: Ba/F3 (KRAS-G12C-R68S) cells (Homo sapiens, UniProt P01116, G12C/R68S, cells depend on it); assay: Proliferation experiment of Ba/F3 (KRAS-G12C-R68S) cells; assay type: cell-based; settings: 72 hours, Cell Titer-Glo, read-out: Test Example 5 IC50
Experimental: Engineered cell strain Ba/F3 (KRAS-G12C-R68S) was a cell strain constructed by the inventors according to the methods described in Warmuth M. et al, Curr Opin Oncol. […] The cells were grown at 37° C. in a humidified incubator with 5% CO2.
as §1, with “(3,000” for “(8,000”

[6] = target: Ba/F3 (KRAS-G12C-Q99L) cells (Homo sapiens, UniProt P01116, G12C/Q99L, cells depend on it); assay: Proliferation experiment of Ba/F3 (KRAS-G12C-Q99L) cells; assay type: cell-based; settings: 72 hours, Cell Titer-Glo, read-out: Test Example 6 IC50
Experimental: Engineered cell strain Ba/F3 (KRAS-G12C-Q99L) was a cell strain constructed by the inventors according to the methods described in Warmuth M. et al, Curr Opin Oncol. […] The cells were grown at 37° C. in a humidified incubator with 5% CO2.
as §1, with “(3,000” for “(8,000”

[7] = In vitro human liver microsome stability experiment; assay type: in vitro ADME; settings: human liver microsomes; for half-life / microsomal CLint: 1 mg/mL microsome protein, NADPH, 37° C.; for microsomal CLint: read-out: CLint(mic); for CLint scaled: scaled to liver
Experimental: Eight 96-well incubation plates were prepared, named [NT], Blank60, and NCF60, respectively. […] No compound to be tested or control compound was added to the Blank60 plate and samples were taken after 60 minutes of incubation. The NCF60 plate, in which a potassium phosphate buffer was used instead of an NADPH regeneration system solution (Sigma, N0505), was incubated for 60 minutes. […] Only the working solution of microsomes was added to the Blank60 plate, and the incubation plates Blank60, T5, T15, T30, T45, and T60 except TO and NCF60 were then placed in a water bath at 37° C. for pre-incubation for about 10 minutes. To the TO plate sample, 600 μL of a stop solution (acetonitrile:methanol (95:5, v/v) solution containing 100 ng/mL tolbutamide (Sigma, T0891)) was added first, and then an NADPH regeneration system working solution was added. 98 μL of a potassium phosphate buffer was added to each well of the NCF60 plate and incubated for 60 minutes. After the pre-incubation in the incubation plates Blank60, T5, T15, T30, T45, and T60 was complete, 98 μL of the NADPH regeneration system working solution was added to each sample well to initiate the reaction. After an appropriate incubation time (such as 5, 15, 30, 45, and 60 minutes), 600 μL of the stop solution was added to each sample well and control sample well in the Blank60, […] the reaction. All the sample plates were shaken evenly and centrifuged at 3220×g for 20 minutes. 200 μL of each test sample supernatant was taken and diluted into 200 μL of an aqueous solution containing 0.3% formic acid for LC-MS/MS analysis, and 100 μL of the control sample supernatant was taken and diluted into 300 μL of pure water for LC-MS/MS analysis. Calculations were carried out according to the following formulas: […]

Ba/F3 (KRAS-G12C-R68S) cells, sequence (P01116 whole entry G12C/R68S): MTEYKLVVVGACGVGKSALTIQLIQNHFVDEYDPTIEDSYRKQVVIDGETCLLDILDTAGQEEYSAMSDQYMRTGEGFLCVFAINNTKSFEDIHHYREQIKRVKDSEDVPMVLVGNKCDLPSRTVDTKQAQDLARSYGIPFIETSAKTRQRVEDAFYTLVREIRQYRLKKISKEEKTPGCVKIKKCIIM
Ba/F3 (KRAS-G12C-Y96C) cells, sequence (P01116 whole entry G12C/Y96C): as the sequence (P01116 whole entry G12C/R68S) above, with S68R, Y96C counted along it
Ba/F3 (KRAS-G12C-H95Q) cells, sequence (P01116 whole entry G12C/H95Q): as the sequence (P01116 whole entry G12C/R68S) above, with S68R, H95Q counted along it
Ba/F3 (KRAS-G12C-Q99L) cells, sequence (P01116 whole entry G12C/Q99L): as the sequence (P01116 whole entry G12C/R68S) above, with S68R, Q99L counted along it

pIC50 [1]	pIC50 [2]	GI50 [3] [nM]	GI50 [4] [nM]	GI50 [5] [nM]	GI50 [6] [nM]	half-life [7] [min]	microsomal CLint [7] [µL/min/mg]	CLint scaled [7] [mL/min/kg]	Compound
9.21	9.22	5.28	16.8	34.6	9.03	38.4	36.1	32.5	C#Cc1cccc2cc(O)cc(-c3c(F)cc4c(N5CCN(C(=O)C(=C)F)[C@@H](CC#N)C5)nc(OCC56CCCN5CCC6)nc4c3F)c12 [Compound 7A, 2-((2S)-4-(7-(8-ethynyl-3-hydroxynaphth-1-yl)-6,8-difluoro-2-((tetrahydro-1H-pyrrolizin-7a(5H)-yl)methoxy)quinazolin-4-yl)-1-(2-fluoroacryloyl)piperazin-2-yl)acetonitrile]
–	–	> 5000	> 5000	> 5000	> 5000	–	–	–	C#Cc1ccc2cccc(-c3c(F)cc4c(N5CCN(C(=O)C(=C)F)[C@@H](CC#N)C5)nc(OCC56CCCN5CCC6)nc4c3F)c2c1 [Compound 25, 2-((2S)-4-(7-(7-ethynylnaphth-1-yl)-6,8-difluoro-2-((tetrahydro-1H-pyrrolizin-7a(5H)-yl)methoxy)quinazolin-4-yl)-1-(2-fluoroacryloyl)piperazin-2-yl)acetonitrile]
9.22	9.28	–	–	–	–	–	–	–	C=C(F)C(=O)N1CCN(c2nc(OCC34CCCN3CCC4)nc3c(F)c(-c4cccc5cccc(Cl)c45)ccc23)C[C@@H]1CC#N [Compound 17, (S)-2-(4-(7-(8-chloronaphth-1-yl)-8-fluoro-2-((tetrahydro-1H-pyrrolizin-7a(5H)-yl)methoxy)quinazolin-4-yl)-1-(2-fluoroacryloyl)piperazin-2-yl)acetonitrile]
–	–	> 5000	> 5000	> 5000	> 5000	–	–	–	C=C(F)C(=O)N1CCN(c2nc(OCC34CCCN3CCC4)nc3c(F)c(-c4cc(O)cc5c(Cl)cccc45)ccc23)C[C@@H]1CC#N [Compound 28, (S)-2-(4-(7-(5-chloro-3-hydroxynaphth-1-yl)-8-fluoro-2-((tetrahydro-1H-pyrrolizin-7a(5H)-yl)methoxy)quinazolin-4-yl)-1-(2-fluoroacryloyl)piperazin-2-yl)acetonitrile]
–	–	> 5000	> 5000	> 5000	> 5000	–	–	–	C#Cc1cc(-c2c(F)cc3c(N4CCN(C(=O)C(=C)F)[C@@H](CC#N)C4)nc(OCC45CCCN4CCC5)nc3c2F)c2ccccc2c1 [Compound 26, 2-((2S)-4-(7-(3-ethynylnaphth-1-yl)-6,8-difluoro-2-((tetrahydro-1H-pyrrolizin-7a(5H)-yl)methoxy)quinazolin-4-yl)-1-(2-fluoroacryloyl)piperazin-2-yl)acetonitrile]
8.80	8.90	473	709	929	589	–	–	–	C=C(F)C(=O)N1CCN(c2nc(OC[C@@]34CCCN3C[C@H](F)C4)nc3c(F)c(-c4cccc5cccc(Cl)c45)ccc23)C[C@@H]1CC#N [Compound 5]
9.33	8.77	–	–	–	–	24.5	56.5	50.9	C#Cc1c(F)ccc2cccc(-c3c(F)cc4c(N5CCN(C(=O)C(=C)F)[C@@H](CC#N)C5)nc(OCC56CCCN5CCC6)nc4c3F)c12 [Compound 19B, 2-((2S)-4-(7-(8-ethynyl-7-fluoronaphth-1-yl)-6,8-difluoro-2-((tetrahydro-1H-pyrrolizin-7a(5H)-yl)methoxy)quinazolin-4-yl)-1-(2-fluoroacryloyl)piperazin-2-yl)acetonitrile]
–	–	> 5000	> 5000	> 5000	> 5000	–	–	–	C#Cc1cccc2c(-c3c(F)cc4c(N5CCN(C(=O)C(=C)F)[C@@H](CC#N)C5)nc(OCC56CCCN5CCC6)nc4c3F)cccc12 [Compound 27, 2-((2S)-4-(7-(5-ethynylnaphth-1-yl)-6,8-difluoro-2-((tetrahydro-1H-pyrrolizin-7a(5H)-yl)methoxy)quinazolin-4-yl)-1-(2-fluoroacryloyl)piperazin-2-yl)acetonitrile]
–	–	> 5000	> 5000	> 5000	> 5000	–	–	–	C=C(F)C(=O)N1CCN(c2nc(OCC34CCCN3CCC4)nc3c(F)c(-c4cc(O)cc5ccc(Cl)cc45)ccc23)C[C@@H]1CC#N [Compound 29, (S)-2-(4-(7-(7-chloro-3-hydroxynaphth-1-yl)-8-fluoro-2-((tetrahydro-1H-pyrrolizin-7a(5H)-yl)methoxy)quinazolin-4-yl)-1-(2-fluoroacryloyl)piperazin-2-yl)acetonitrile]
8.74	8.84	525	689	863	779	–	–	–	C=C(F)C(=O)N1CCN(c2nc(OCC34CCCN3CCC4)nc3c(F)c(-c4cccc5cccc(Cl)c45)c(F)cc23)C[C@@H]1CC#N [Compound 6A, 2-((2S)-4-(7-(8-chloronaphth-1-yl)-6,8-difluoro-2-((tetrahydro-1H-pyrrolizin-7a(5H)-yl)methoxy)quinazolin-4-yl)-1-(2-fluoroacryloyl)piperazin-2-yl)acetonitrile]
